{
  "source": "patent US7935525B2",
  "about": "“Inhibition of ATF2 activity to treat cancer” (Mount Sinai School of Medicine, priority 2001, dated 2011)",
  "key": {"SW1 melanoma tumors": {"test_system": "SW1 melanoma tumors", "experiment": "Growth and metastasis of SW1 tumors constitutively expressing peptide, C3H mice", "type": "in vivo", "experimental": "(§1) Tumor growth and metastasis evaluation in vivo. Cell lines established in culture to constitutively or inducibly express the peptide were injected into mice subcutaneously (S.C.). LU1205, FEMX and SW-1 cells that expressed control or peptide II were trypsinized, resuspended in PBS and injected SC (1×10^6) into 6-7 week old mice in the lower flank. When the tumor reached the size of about 50 mm^3, 5 μM of SB203580 was injected into four areas of the LU1205 tumors every 4 days during a 2-week period. For FEMX tumors UCN-01 (2.5 mg/kg) was fed by gavage twice a day, three times per week for a total of 2 weeks. Tumor growth was monitored every two days. SW-1 cells expressing peptide II under tet-inducible vector were injected SC (1×10^6). When tumors reached a size of about 50 mm^3, the mice received doxycycline in their drinking water ([…]) for a total of 2-4 weeks. At the end of the experiment, the tumors were excised and weighed. The lungs and other organs were subjected to histopathological examination to detect metastatic lesions."}, "AP1 complex": {"test_system": "AP1 complex", "experiment": "Transcriptional activity mediated from AP1 target sequences", "type": "cell-based", "settings": "peptide-expressing melanoma cells"}, "ATF2": {"test_system": "ATF2", "experiment": "ATF2 phosphorylation in peptide-expressing melanoma cells", "type": "cell-based, human", "settings": "vs control vector cells"}, "LU1205 tumor cells": {"test_system": "LU1205 tumor cells", "experiment": "Growth of transplanted LU1205 tumors in mice", "type": "in vivo", "experimental": "as §1"}, "FEMX tumor cells": {"test_system": "FEMX tumor cells", "experiment": "Growth of transplanted FEMX tumors in mice", "type": "in vivo", "experimental": "as §1"}, "Jun2-Luc": {"test_system": "Jun2-Luc", "experiment": "Jun2-Luc reporter in ATF2 null cells", "type": "cell-based"}, "SW1 tumors [1]": {"test_system": "SW1 tumors", "experiment": "Doxycycline-inducible peptide expression in existing SW1 tumors", "type": "in vivo, C3H mice", "text": "Constructs. ATF2 peptides were cloned into HA-penetratin pcDNA3 vector as described above. For the doxycycline inducible system peptide II was cloned in frame with HA and Penetratin into SacII and XbaI sites of the PUHD10-3 vector (Gossen M., et al., Proc. Natl. Acad. Sci. USA. 1992, 89(12):5547-51). The PeF1PrtTA vector (Gopalkrishnan R. V., et al., Nucleic Acids Res. 1999; 27(24):4775-82) places the rtTA gene under transcriptional control of the human EF-10 promoter. Replication deficient adenovirus expressing peptide II was generated by subcloning the ATF2 peptide cDNA into the corresponding adenovirus vector as previously described (Chen S. H., et al., Proc. Natl. Acad. Sci. USA 1994; 91(8):3054-7).\nDerivation of stable cell lines. Selection of clones stably expressing the rtTA construct was carried out in SW-1 cells in the presence of […] of G418. After the selection period 12 single colonies were picked, expanded and analyzed for activity by assaying for Luciferase activity (Gopalkrishnan R. V., et al., Nucleic Acids Res. 1999; 27(24):4775-82). […] The positive clone, which expresses the rtTA cDNA, was contransfected with PUHDI0-3 peptide II and Pbabe Puro vectors that allow one to establish inducible expression of the respective genes (Gopalkrishnan et al., supra) and single clones were selected with […] of Puromycin. Positive clones were selected by Western blotting.\nTumor growth and metastasis evaluation in vivo. Cell lines established in culture to constitutively or inducibly express the peptide were injected into mice subcutaneously (S.C.). LU1205, FEMX and SW-1 cells that expressed control or peptide II were trypsinized, resuspended in PBS and injected SC (1×10^6) into 6-7 week old mice in the lower flank. When the tumor reached the size of about 50 mm^3, 5 μM of SB203580 was injected into four areas of the LU1205 tumors every 4 days during a 2-week period. For FEMX tumors UCN-01 (2.5 mg/kg) was fed by gavage twice a day, three times per week for a total of 2 weeks. Tumor growth was monitored every two days. […]"}, "SW1 tumors [2]": {"test_system": "SW1 tumors", "experiment": "cDNA microarray expression profiling of SW1 tumors", "type": "in vivo, mouse", "experimental": "cDNA microarray hybridizations. The 10 k mouse Gem 2 gene set (Incyte Genomics Inc, Palo Alto Calif.) was printed at the NCI on poly-L lysine coated glass using Biorobotics TASII arrayer (Cambridge, England). All protocols for the manufacturing and hybridization of microarrays are available at the NCI web site. Approximately 20 μg of total RNA was used in the reverse transcription reaction to directly label the probe with either Cy-5 dUTP or Cy-3 dUTP (Amersham®). Hybridizations were performed at 65° C. for 12-18 h in a hybridization volume of […]. The hybridized arrays were scanned using an Axon GenePix 4000® scanner (Union city, CA) and fluorescent data were collected using GenePix™ software.\nData Analysis. The axon image data for each microarray was uploaded to the NCI mAdb database for subsequent analysis using a variety of statistical web based tools. Gene clustering analysis was performed using the clustering algorithm and tree view software developed by Mike Eisen (Stanford, Calif.)."}, "Fas promoter": {"test_system": "Fas promoter", "experiment": "Fas promoter activity (-460 Fas promoter region)", "type": "cell-based, human", "settings": "peptide-expressing LU1205"}, "p38": {"biological_target": "p38 (Homo sapiens, UniProt Q16539)", "sequence (Q16539 whole entry)": "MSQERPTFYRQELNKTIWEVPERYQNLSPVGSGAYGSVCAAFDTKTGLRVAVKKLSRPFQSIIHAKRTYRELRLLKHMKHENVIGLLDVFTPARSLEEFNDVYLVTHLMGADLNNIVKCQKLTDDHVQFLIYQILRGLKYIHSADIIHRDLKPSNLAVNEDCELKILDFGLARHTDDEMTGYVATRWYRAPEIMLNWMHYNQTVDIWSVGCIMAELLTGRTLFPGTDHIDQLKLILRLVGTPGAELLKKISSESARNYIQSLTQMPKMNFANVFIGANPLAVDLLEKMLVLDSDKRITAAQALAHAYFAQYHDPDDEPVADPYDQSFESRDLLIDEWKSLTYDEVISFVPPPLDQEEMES", "experiment": "In vitro phosphorylation of the peptide", "type": "biochemical"}, "FAS": {"test_system": "FAS", "experiment": "Cell surface FAS receptor by FACS in SW1 cells", "type": "cell-based, mouse", "settings": "peptide-expressing SW1 vs control", "experimental": "(§2) Electrophoretic mobility shift assays were performed as described. (Ivanov and Ronada, J Biol Chem 1999; 274(20):14079-89). GST binding assays were performed with GST-peptide II as described (Adler et al., Proc Natl Acad Sci USA 1995; 92 10585-9). SW1 cells expressing control vector or peptide II were subjected to FACS analysis following their incubation with antibodies to the cell surface receptor of FAS as described above."}, "[3]": {"test_system": "ATF2 target sequence (c-Jun promoter motif TGACACTA)", "experiment": "Electrophoretic mobility shift assay with labeled AP1 oligonucleotide", "type": "binding, mouse", "settings": "control vs peptide-expressing SW1 cells", "experimental": "as §2"}, "[4]": {"settings": "tumors expressing peptide vs control vector"}},
  "note": "Entries after “also recorded” stand apart in the source; their conditions may differ. No end group written: not given here.",
  "data": [
    {"substance": "peptide II: N-terminal polypeptide fragment of ATF2, amino acid residues 50-100, expressed from pcDNA3 with HA-penetratin tag (EMTLKFGPARNDSVIVADQTPTPTRFLKNCEEVGLFNELASPFENEFKKAS; also: HA-penetratin tag, position not given here; UniProt P15336 50-100, looked up, fragment)", "values": [
      {"measurement": "tumor size", "setting": "SW1 melanoma tumors; 3-week period, control parent tumor 1800 mm^3", "value": 100, "unit": "mm^3"},
      {"measurement": "tumor size", "setting": "SW1 melanoma tumors; SC injection, analyzed three weeks later", "value": "very small tumors"},
      {"measurement": "average tumor size", "setting": "SW1 melanoma tumors; at 72 days", "value": "about 1200 mm^3"},
      {"measurement": "time for which tumor growth was completely blocked", "setting": "SW1 melanoma tumors; constitutive expression", "value": "up to 35 days"},
      {"measurement": "apoptosis in tumors (tunnel assay)", "setting": "SW1 melanoma tumors; excised SW1 tumors", "value": "substantially higher level of apoptosis"},
      {"measurement": "metastasis", "setting": "SW1 melanoma tumors; monitored up to 72 days", "value": "no metastasis was seen"},
      {"measurement": "transcriptional activities mediated by AP1 target sequences", "setting": "AP1 complex", "value": "lower"},
      {"measurement": "ATF2 phosphorylation after UV-treatment", "setting": "ATF2; UV-treated", "value": "reduced"},
      {"measurement": "degree of ATF2 phosphorylation", "setting": "ATF2; non-stressed growth conditions", "value": "higher degree of ATF2 phosphorylation"},
      {"measurement": "inhibition of tumor growth", "setting": "LU1205 tumor cells; combination: peptide-expressing LU1205 + SB203580", "value": "significant inhibition of tumor growth; also recorded: more effective"},
      {"measurement": "tumor cell growth", "setting": "LU1205 tumor cells; single agent: inhibitor injected into tumor, or peptide expressed in tumor cells", "value": "grew much more slowly"},
      {"measurement": "tumor growth", "setting": "FEMX tumor cells; co-treatment: peptide-expressing FEMX + UCN-01", "value": "tumor regression"},
      {"measurement": "tumor cell growth", "setting": "FEMX tumor cells; single agent: UCN-01 by gavage, or peptide expressed in tumor cells", "value": "grew much more slowly"},
      {"measurement": "Jun2-Luc activities", "setting": "Jun2-Luc", "value": "did not affect"},
      {"measurement": "decrease in the growth rate of tumors", "setting": "SW1 tumors [1]; doxycycline in drinking water from 90 mm^3, 32 days", "value": "~2", "unit": "fold"},
      {"measurement": "reduction of tumor growth rate", "setting": "SW1 tumors [1]; inducible expression via doxycycline", "value": 50, "unit": "%"},
      {"measurement": "degree of apoptosis in tumors (tunnel assay)", "setting": "SW1 tumors [1]; tumors from doxycycline-fed mice", "value": "increase in degree of apoptosis"},
      {"measurement": "expression of ATF2", "setting": "SW1 tumors [2]; four independent experiments", "value": "downregulated"},
      {"measurement": "expression of ATF4 transcripts", "setting": "SW1 tumors [2]; four independent experiments", "value": "increase"},
      {"measurement": "transcripts of interleukin-1 beta, cullin 3, kinesin-associated protein 3, ATF3 and membrane metallo-endopeptidase", "setting": "SW1 tumors [2]; tumors expressing peptide", "value": "up-regulated"},
      {"measurement": "transcripts of tyrosine kinase 2, metallothionein 2 and ubiquitin-specific protease 18", "setting": "SW1 tumors [2]; tumors expressing peptide", "value": "downregulated"},
      {"measurement": "expression of Fas-associated genes", "setting": "SW1 tumors [2]; [4]", "value": "Downregulation"},
      {"measurement": "expression of growth-associated genes", "setting": "SW1 tumors [2]; [4]", "value": "consistent downregulation"},
      {"measurement": "expression of interferon-associated genes", "setting": "SW1 tumors [2]; [4]", "value": "consistent downregulation"},
      {"measurement": "expression of tumor necrosis factor-related genes (and other tumor antigens)", "setting": "SW1 tumors [2]; [4]", "value": "strongly upregulated"},
      {"measurement": "Fas promoter mediated transcription", "setting": "Fas promoter", "value": "increase in Fas-mediated transcription"},
      {"measurement": "phosphorylation of the peptide by p38", "setting": "p38", "value": "Neither JNK nor p38 was found capable of phosphorylating"},
      {"measurement": "level of FAS on the cells", "setting": "FAS", "value": "greatly increased"},
      {"measurement": "binding of nuclear extracts to the labeled AP1 oligonucleotide", "setting": "[3]", "value": "No significant changes"}
    ]}
  ]
}
